Laboratory results reported in paper PMC9646836, “Tetrahydroquinolinone derivatives exert antiproliferative effect on lung cancer cells through apoptosis induction” (Scientific Reports, 2022).

Columns and labels:
[1] = test system: HCT-116; test: MTT cell viability assay, HCT-116; format: cell-based, human; conditions: mean ± SD, n = 3
Experimental: (§1) All new tetrahydroquinoline derivatives were assessed for cytotoxicity on a broad panel of cancer and normal cell lines, using the MTT assay. The half-inhibitory growth inhibitory concentration (IC50) values of each compound were calculated after 72 h of treatment and presented in Table 1. […] In this assay, the IC50 value of 5-FU and ETP was recorded as a positive control.
Non-small cell lung cancer cells A549 (CCL-185), breast cancer cells MCF-7 ([…]), hepatocarcinoma cells HepG2 ([…]), normal kidney cells HEK293 (CRL-1573), and osteosarcoma cells U-2 OS (HTB-96) were obtained from the American Type Culture Collection. HCT-116 cell line was kindly provided by prof. Bert Vogelstein (Johns Hopkins University, Howard Hughes Medical Institute, USA). The obtained A549 and MCF-7 cells were cultured in RPMI-1640 medium, HepG2 cells in Minimum Essential Medium Eagle medium, HEK-293 cells in Dulbecco’s Modified Eagle’s medium, and U-2 OS and HCT-116 cells in McCoy’s […] medium. All culture media were supplemented with 10% fetal bovine serum, 2 mM L-glutamine, and antibiotics (penicillin 62.6 µg/ml and streptomycin 40 µg/ml; Sigma-Aldrich). Both cancer and normal cells were cultured at 37 °C under a humidified atmosphere with 5% or 10% CO2 and routinely screened for Mycoplasma contamination. All materials and reagents were obtained from Corning unless stated otherwise.
(§2) The cytotoxic effect of the synthesized compounds was assessed by the MTT (4,5-dimethylthiazol-2-yl-2,5-diphenyltetrazoliumbromide; Sigma-Aldrich) assay. Briefly, the cells were seeded into 96-well transparent flat-bottom plates and allowed to attach overnight. On the next day, the cells were treated with compounds in the range of 0–50 µM for 72 h. Dimethyl sulfoxide (DMSO; Merck) and 5-fluorouracil (5-FU; Sigma-Aldrich) were used as a reference. After exposure to the compounds, 20 μl of the MTT solution at a concentration of 4 mg/ml was added to each well, and the plates were incubated again for 2–3 h at 37 °C. Next, the media in the wells was replaced with 100 μl DMSO to solubilize the formazan crystals. The absorbance was measured at 540 nm using an ASYS UVM340 microplate reader (Biochrom Ltd.). The IC50 value of the compounds was calculated using GraphPad Prism 9 software, based on the curves plotted with survival as a function of dose, averaged from three independent experiments.

[2] = test system: Hela; test: MTT cell viability assay, Hela; format: cell-based; conditions: Homo sapiens, HeLa, 72 h, mean ± SD, n = 3
Experimental: as §1, §2

[3] = test system: A549 cells; test: Colony formation assay; format: cell-based, human; conditions: A549, 24 h pretreatment, 9 days culture, vs DMSO-treated control
Experimental: HCT-116 and A549 cells were seeded into six-well plates at a density of 500 cells per well and allowed to attach overnight. On the next day, the cells were pretreated with compound 4a at different concentrations or with 1% v/v DMSO for 24 h. After incubation, the cells were washed and cultured for 9 days. Next, the cells were fixed with methanol for 20 min and stained with 0.5% crystal violet (Sigma-Aldrich). Finally, the plates were dried overnight and imaged using a UVITEC Cambridge imaging system. Quantification was performed with ImageJ software. The surviving fraction was calculated as previously described. Each experiment was repeated three times.

[4] = test system: A549 cells; test: Apoptosis assay (Annexin V/7-AAD, flow cytometry); format: cell-based, human; conditions: A549, IC50 concentration
Experimental: To further explain the mechanism by which 4a induced cell death in cancer cells, a flow cytometric analysis was performed by dual-staining the cells with 7-aminoactinomycin D (7-AAD) and Annexin V-fluorescein isothiocyanate (FITC). Annexin-V is a Ca^2+-dependent protein with potent affinity to phosphatidylserine. During early apoptosis, cells lose plasma membrane asymmetry through, for example, the externalization of phosphatidylserine. Once exposed to the outside of the cell surface, phosphatidylserine can be recognized by Annexin-V, and quantified. On the other hand, 7-AAD is a dye that cannot penetrate the intact cell membrane, and allows differentiating between necrotic and late apoptotic cells from living and early apoptotic cells. […] Treatment with the tested compound for 24 h caused 3.9-fold augmentation in apoptosis [early: 7-AAD (–), Annexin V-FITC (+); late: 7-AAD (+), Annexin V-FITC (+)] in comparison to the vehicle.
(§3) Cells were seeded in a 5-cm^2 dish at a density of 15 × 10^5 cells per dish and allowed to attach overnight at 37 °C. Then, compounds at IC50 concentrations were added to the medium. After 6, 24, and 48 h, the cells were harvested and washed with PBS. Subsequently, the cells were resuspended in the binding buffer and stained with Annexin V Alexa Fluor™ 488 conjugate (#A13201; Thermo Fisher Scientific) for the apoptosis assay and with CellEvent™ Caspase-3/7 Green Flow Cytometry Assay Kit (#C10427; Thermo Fisher Scientific) for the activation of caspase-3/7, as per the manufacturer’s instructions. After incubation, the samples were immediately analyzed using a Guava EasyCyte 8 cell sorter (Merck Millipore) and FlowJo software v10. Each experiment was repeated three times.

[5] = test system: caspase-3/7 in A549 cells; test: Caspase-3/7 activation (flow cytometry); format: cell-based, human; conditions: A549, IC50 concentration
Experimental: Apoptosis induction via both intrinsic and extrinsic pathways is mediated by caspase cascade events. Therefore, in this study, the ability of 4a to activate two effector caspases (caspase-3 and caspase-7) was evaluated by flow cytometry.
as §3

## O=c1[nH]c2c(c(-c3ccccc3)c1Cc1cccc3ccccc13)CCCC2 [Compound 4a, 3-(1-naphthylmethyl)-4-phenyl-5,6,7,8-tetrahydro-1H-quinolin-2-one]
[1]; 72 h
  IC50: 12.2 ± 1.61 µM
[1]; Homo sapiens, HCT-116, 72 h
  IC50: ~13 µM
[2]
  IC50: > 50 µM
[3]
  number of observed colonies: significantly decreased
[4]; 6 h, vs DMSO control
  increase in the fraction of early-apoptotic cells [7-AAD (–), Annexin V-FITC (+)]: 14.03 ± 1.74%
[4]; 24 h, vs vehicle
  augmentation in apoptosis (early + late): 3.9 fold
[4]; 48 h
  percentage of apoptotic cells: significant increase
[5]; 24 and 48 h, vs vehicle
  activation of caspase-3/7: 3.9 ± 0.33 fold
[5]; 6 h
  increase in the activity of caspase-3/7: 2.32 ± 0.05 fold
